Measured values taken from patent publication US12473295B2, “Substituted straight chain spiro derivatives” (Janssen Pharmaceutica NV, priority 2019, dated 2025).
Structures can show the parent of a compound that is named as a salt.

Tests used:
[1] = target: menin/MLL (terbium chelate-labeled menin, FITC-MBM1 peptide) (Homo sapiens (Human), UniProt O00255); assay: Menin/MLL homogenous time-resolved fluorescence (HTRF) assay; assay type: binding; details: HTRF-30 min incubation IC50, 30 min incubation;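 note: IC50 from percent inhibition of HTRF signal, normalized between wells without competitor and wells with a saturating competitor that displaces FITC-MBM1 from His-tagged menin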
Sequence of menin/MLL (terbium chelate-labeled menin, FITC-MBM1 peptide) (O00255 other isoform, or with tags, fused parts or gaps): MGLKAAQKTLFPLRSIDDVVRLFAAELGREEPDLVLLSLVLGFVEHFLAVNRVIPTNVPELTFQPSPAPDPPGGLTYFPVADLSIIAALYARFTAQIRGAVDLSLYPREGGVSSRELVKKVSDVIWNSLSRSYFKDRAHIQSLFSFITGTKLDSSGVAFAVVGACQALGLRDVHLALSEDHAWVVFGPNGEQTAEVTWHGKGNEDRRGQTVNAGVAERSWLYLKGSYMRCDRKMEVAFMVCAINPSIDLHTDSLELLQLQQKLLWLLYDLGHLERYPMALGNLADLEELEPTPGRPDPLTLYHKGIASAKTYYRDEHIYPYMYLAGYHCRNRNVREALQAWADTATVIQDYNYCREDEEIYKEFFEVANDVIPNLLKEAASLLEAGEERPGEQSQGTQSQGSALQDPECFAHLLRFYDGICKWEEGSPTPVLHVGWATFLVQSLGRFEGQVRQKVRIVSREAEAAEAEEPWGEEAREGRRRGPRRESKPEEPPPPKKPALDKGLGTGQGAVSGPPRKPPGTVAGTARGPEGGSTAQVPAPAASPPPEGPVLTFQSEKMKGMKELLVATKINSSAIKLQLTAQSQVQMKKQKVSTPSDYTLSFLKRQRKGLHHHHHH

[2] = tested on: MOLM14 cells; assay: Proliferation assay (spheroid growth, 8 days), MOLM14; assay type: cell-based, human; details: Homo sapiens, MOLM-14, […], MOLM14, 8 days; read-out: spheroid assay_OneTime MOLM14 IC50;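 note: spheroid size read as confluence by live-cell imaging, compounds added at a range of concentrations with 0.3% DMSO, DMSO-treated wells = 0%, highest reference dose = low control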
[3] = tested on: OCI-AML3 cells; assay: Proliferation assay (spheroid growth, 8 days), OCI-AML3; assay type: cell-based, human; details: Homo sapiens, OCI-AML-3, […], OCI-AML3, 8 days
Procedure, shortened: (§1)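 Spheroid size on day 8, taken as live-cell imaging confluence, served as readout after 8-day compound exposure (0.3% DMSO, 37 °C, 5% CO2) in round-bottom low-attachment wells. Seeding was 200 cells for MOLM14 and OCI-AML3, 300 for KO-52. IC50 came from % effect versus DMSO and reference baseline, fitted with variable slope.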

[4] = tested on: KO-52 cells; assay: Proliferation assay (spheroid growth, 8 days), KO-52 control cell line; assay type: cell-based, human; details: Homo sapiens, […], read-out: spheroid assay_OneTime KO-52 IC50
Procedure, shortened: as §1

[5] = tested on: MEIS1 mRNA; assay: MEIS1 mRNA expression assay (Quantigene Singleplex) in MOLM14 cells; assay type: cell-based, human; details: Homo sapiens, MOLM-14, 48 h, 48 hours incubation;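 note: MEIS1 transcript levels read by probe hybridization and normalized to RPL28 mRNA, with IC50 fitted to fold changes across a rising compound concentration series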
[6] = target: hERG (Homo sapiens (Human), UniProt Q12809); assay: Effect on membrane potassium current IKr in hERG-transfected HEK293 cells, Protocol 2 (SyncroPatch 384PE); assay type: cell-based; details: Protocol 2, hERG-transfected HEK293 cells
Sequence of hERG (Q12809 whole entry): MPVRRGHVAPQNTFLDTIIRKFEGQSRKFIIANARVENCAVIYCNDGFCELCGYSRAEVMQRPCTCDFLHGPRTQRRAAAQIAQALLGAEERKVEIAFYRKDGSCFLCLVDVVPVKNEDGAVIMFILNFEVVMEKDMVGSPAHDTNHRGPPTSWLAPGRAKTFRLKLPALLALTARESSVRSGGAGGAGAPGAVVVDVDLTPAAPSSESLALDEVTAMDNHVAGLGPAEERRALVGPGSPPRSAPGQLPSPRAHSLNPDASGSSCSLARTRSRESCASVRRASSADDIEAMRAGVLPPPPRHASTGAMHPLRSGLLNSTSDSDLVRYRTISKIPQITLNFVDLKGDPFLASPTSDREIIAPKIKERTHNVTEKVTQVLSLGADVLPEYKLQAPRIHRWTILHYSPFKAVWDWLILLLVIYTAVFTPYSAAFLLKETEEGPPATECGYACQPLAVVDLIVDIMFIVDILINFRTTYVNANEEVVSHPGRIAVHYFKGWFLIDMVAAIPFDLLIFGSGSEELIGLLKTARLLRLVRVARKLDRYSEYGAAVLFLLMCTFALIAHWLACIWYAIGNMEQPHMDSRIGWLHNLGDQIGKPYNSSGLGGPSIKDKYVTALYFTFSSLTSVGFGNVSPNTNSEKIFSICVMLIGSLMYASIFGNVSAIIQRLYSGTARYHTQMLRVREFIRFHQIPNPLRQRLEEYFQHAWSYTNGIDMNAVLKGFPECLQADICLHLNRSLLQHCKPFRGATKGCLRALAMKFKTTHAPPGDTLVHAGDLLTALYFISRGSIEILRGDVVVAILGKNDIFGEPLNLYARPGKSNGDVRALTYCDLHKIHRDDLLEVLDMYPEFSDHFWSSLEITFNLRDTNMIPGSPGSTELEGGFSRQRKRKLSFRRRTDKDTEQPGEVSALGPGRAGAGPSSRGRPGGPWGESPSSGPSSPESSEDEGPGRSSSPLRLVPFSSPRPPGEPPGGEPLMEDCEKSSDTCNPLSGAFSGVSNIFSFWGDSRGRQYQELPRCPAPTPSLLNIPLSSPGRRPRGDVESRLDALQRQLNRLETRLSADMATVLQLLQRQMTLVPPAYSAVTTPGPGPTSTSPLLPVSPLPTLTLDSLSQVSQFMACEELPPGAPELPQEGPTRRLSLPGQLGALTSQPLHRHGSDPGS
Method: 8) Effect on the Membrane Potassium Current IKr in hERG Transfected Cell Lines
The compound, vehicle control and positive control were tested on hERG-transfected HEK293 cells. A human embryonic kidney cell line (HEK293) with a stable transfection of hERG (Zhou Z et al. Biophysical Journal 1998. 74, 230-241; McDonald T. V. et al, Nature 1997. 388, 289-292) was used (University of Wisconsin, Madison, USA). The cells were kept in culture in MEM (Minimum Essential Medium, Gibco) which was supplemented with (amounts indicated added to 500 ml MEM): 5 ml L-Glutamine-Penicillin-Streptomycin (Sigma), 50 ml Fetal Bovine serum (Bio-Whittaker), 5 ml Non-essential Amino Acids 100× (Gibco), 5 ml sodium pyruvate 100 mM (Gibco) and 4 ml geneticin 50 mg/ml (Gibco) using T175 flasks. The cells were incubated at 37° C. in 5% CO2 atmosphere (in air).
Cell Harvesting for Assay
Cells were harvested as described below using Accumax™ (Sigma) as the dissociating reagent. Cells were then resuspended in a mixture of 33% DMEM/F12 (Dulbecco's Modified Eagle Medium/Nutrient Mixture F-12—Sigma) media/67% extracellular physiological solution.
The flasks were washed twice carefully with ˜5-10 ml phosphate buffered saline (PBS) (Gibco™) containing 2 mM EDTA (Ethylenediaminetetraacetic acid) (Sigma). The cells were dissociated using ˜3 ml of Accumax™ (cell detachment solution) and incubated for ˜5 to 10 min. at 37° C. Cold external physiological solution (2-5 ml) was added and the flasks are incubated at ˜4° C. for 5-10 min. Then, the cell suspension in each flask was gently dissociated with a 5 ml pipette. The cell suspension was transferred to a low binding petri-dish (˜[…]). Each flask was washed with ˜additional 5 ml cold external physiological solution and this solution was also added to the petri-dish. The petri-dish was then incubated for another 5 to 10 minutes at ˜4° C. After another gentle dissociation of the cell suspension in the petri dish, the cells were transferred to a reservoir kept on an orbital shaker at 200 rpm at 16° C. Before experiments were performed, the cells recovered for ˜20 min.
A 10 mM solution of the compound was used and plated in a 384 well plate. Aliquots of the stock solutions are diluted with the recording solution (see section 3) using automated liquid handling (Biomek FXP; final DMSO concentration: 0.03 to 0.3%). A standard range of screening concentrations was used ranging from 1 μM to 30 μM.
A positive control (E-4031) was included within each run to evaluate the sensitivity of the assay.
External and Intracellular Solutions Used in the Experiments
In the table below the composition of the intracellular and external buffer solutions is shown in [mM] (“NMDG” means N-methyl-D-glucamine)
The whole cell patch clamp technique on transfected cells allows the study of ion-channels with no—or limited interference from other ion-channels. The effects of the compounds on the hERG current were studied with an automated planar patch clamp system, SyncroPatch 384PE (Obergrussberger et al, Journal of Laboratory Automation 2016. 21 (6). 779-793). All cells were recorded in the whole cell mode of the patch clamp technique. The module is incorporated in a liquid handling pipetting robot system, Biomek FXP, for application of cells and compounds, vehicle control and positive control.
The different concentrations of the compounds were applied in two cumulatively increasing concentrations for the compounds (1 μM and 10 μM, and 3 μM and 30 μM, respectively). The hERG current was determined as the maximal tail current at −30 mV and percent inhibition upon compound or vehicle and positive control addition was reported.
After cells are caught onto the individual holes of the recording chips using the chip fill solution, the seal is increased with the seal enhancer solution (increased [Ca^2+]; then the cells were washed twice with recording solution before using a pressure protocol to go into the whole cell mode. […]

| Compound | IC50 [1] [nM] | IC50 [2] [nM] | IC50 [3] [nM] | IC50 [4] [nM] | IC50 [5] [nM] | IC50 [6] [nM] |
| --- | --- | --- | --- | --- | --- | --- |
| CCN(C)CCC[C@H](C(C)C)N1CC2(CCN(c3ncnnc3Oc3ccc(F)cc3C(=O)N(CC)C(C)C)C2)C1 (single isomer, unassigned) [Compound 132, (*R)—N-ethyl-2-((5-(2-(6-(ethyl(methyl)amino)-2-methylhexan-3-yl)-2,6-diazaspiro[3.4]octan-6-yl)-1,2,4-triazin-6-yl)oxy)-5-fluoro-N-isopropylbenzamide fumarate] | 0.11 | 33 | 190 | 10400 | 15 | > 30200 |
| CC(C)[C@H](CCCN(C)CCC(=O)N(C)C)N1CC2(CCN(c3ncnnc3Oc3ccc(F)cc3C(=O)N(C(C)C)C(C)C)C2)C1 (single isomer, unassigned) [Compound 146, (*S)-2-((5-(2-(6-((3-(dimethylamino)-3-oxopropyl)(methyl)amino)-2-methylhexan-3-yl)-2,6-diazaspiro[3.4]octan-6-yl)-1,2,4-triazin-6-yl)oxy)-5-fluoro-N,N-diisopropylbenzamide fumarate] | 0.081 | 320 | 1790 | > 15000 | 440 | > 30200 |
| CCN(C(=O)c1cc(F)ccc1Oc1nncnc1N1CCC2(C1)CN([C@H](CCN(C)C)C(C)C)C2)C(C)C (single isomer, unassigned) [Compound 223, (*R)-2-((5-(2-(1-(dimethylamino)-4-methylpentan-3-yl)-2,6-diazaspiro[3.4]octan-6-yl)-1,2,4-triazin-6-yl)oxy)-N-ethyl-5-fluoro-N-isopropylbenzamide fumarate] | 0.4 | 180 | 990 | > 15000 | 200 | > 30200 |
| CCN(C(=O)c1cc(F)ccc1Oc1nncnc1N1CCC2(C1)CN([C@H](CCNCCOC)C(C)C)C2)C(C)C (single isomer, unassigned) [Compound 227, (*R)—N-ethyl-5-fluoro-N-isopropyl-2-((5(2-(1-((2-methoxyethyl)amino)-4-methylpentan-3-yl)-2,6-diazaspiro[3.4]octan-6-yl)-1,2,4-triazin-6-yl)oxy)benzamide fumarate] | 0.15 | 46 | 130 | > 15000 | 76 | > 30200 |
| CCN(C(=O)c1cc(F)ccc1Oc1nncnc1N1CCC2(C1)CN([C@H](C[C@H](C)CN(C)CCOC)C(C)C)C2)C(C)C (single isomer, unassigned) [Compound 242] | 0.26 | 170 | 1070 | > 15000 | 230 | > 30200 |
| CCN(C(=O)c1cc(F)ccc1Oc1nncnc1N1CCC2(C1)CN([C@H](CCCN(C)CCN(C)C(C)=O)C(C)C)C2)C(C)C [Compound 148, (R)-N-ethyl-5-fluoro-N-isopropyl-2-((5-(2-(2-methyl-6-(methyl(2-(N-methylacetamido)ethyl)amino)hexan-3-yl)-2,6-diazaspiro[3.4]octan-6-yl)-1,2,4-triazin-6-yl)oxy)benzamide fumarate] | 0.35 | 41 | 340 | > 15000 | 60 | 12300 |
| O=C(O)/C=C/C(=O)O.[2H]C([2H])(COC)N(C)CCC[C@H](C(C)C)N1CC2(CCN(c3ncnnc3Oc3ccc(F)cc3C(=O)N(CC)C(C)C)C2)C1 [Compound 233, (R)-N-ethyl-5-fluoro-N-isopropyl-2-((5-(2-(6-((2-methoxyethyl-1,1-d2)(methyl)amino)-2-methylhexan-3-yl)-2,6-diazaspiro[3.4]octan-6-yl)-1,2,4-triazin-6-yl)oxy)benzamide fumarate] | – | 26 | 150 | 5030 | – | > 30200 |
